Measurements from patent US11833232B2, “Deodorant compositions with natural wax” (The Procter & Gamble Company, priority 2020, dated 2023).
Where a name gives a salt, the structure may show the parent alone.

Key:
S. epidermidis = assay: Tier 1 Anaerobic MIC Assay; assay type: cell-based, Staphylococcus epidermidis (clinical isolate); conditions: raw material, 37° C. overnight, O.D. 600
Source text: (§1) Tier 1 Anaerobic MIC Assay
(§2) The data in Table 2 above was generated with the following test method. The purpose of this assay is to determine if a compound or formulation has an antimicrobial effect in vitro.
(§3) It is understood that when not specifically noted in this procedure: • a) All materials, reagents and equipment required for this procedure are of appropriate design and condition of cleanliness and/or sterility as determined by their intended use. • b) The operator has been trained in aseptic technique and has been qualified to perform the procedure and accurately interpret the results. • c) All media required for this procedure was manufactured by a reputable commercial source egg. Difco, Merck etc. and has been stored and prepared as per manufacturer's instructions. • d) All routine laboratory controls, including but not limited to, media function and growth promotion tests, verification of sterility and use of positive and negative controls are being conducted.
(§4) Procedure: (All procedures performed in anaerobic chamber except where noted)
1. […]
(§5) In row A of a 96 deep well plate pipette 180 ul of sterile BHI with 1% Tween 80 as a negative growth control. […] The next day read the O.D. 600 on a plate reader. […]

C. mucofaciens = assay: Tier 1 Anaerobic MIC Assay; assay type: cell-based, Corynebacterium mucofaciens (clinical isolate); conditions: raw material, 37° C. overnight, O.D. 600
Source text: as §1, §2, §3, §4
1. […]
as §5

[1] = system: two key underarm bacteria strains; assay: Raw material microbial inhibition, verdict in words over both strains; assay type: cell-based, Corynebacterium mucofaciens; Staphylococcus epidermidis
Experimental: The Tier 1 Anaerobic MIC Assay test method to generate the data of Table 2 is described below.
as §1
The data in Table 2 above was generated with the following test method.
3. Microbial Strains • Staphylococcus epidermidis (clinical isolate) • Corynebacterium mucofaciens (clinical isolate)
4. Test Procedure • Inoculum Preparation • Prior to testing streak organisms for isolation on BHI with 1% Tween 80 plates, wrap with parafilm and place in 37° C. incubator. When isolated colonies appear remove one representative colony from each plate and place each in 5 ml of BHI with 1% Tween 80 media. Incubate at 37° C. with shaking overnight. Inoculate 20 ml BHI with 1% Tween 80 (per 96 deep well plate to be tested) with 20 ul of the overnight culture (1-1000 dilution). • Master Plate Preparation • Compounds/formulations to be tested are diluted across a 96 deep well plate as shown below in Table 3 (for a 1% stock solution). […] 800 ul each 1% stock solution+positive control are added to wells C1 through H1. […] 400 ul is then removed from #1 well added to the #2 well and mixed. This is then continued across the plate resulting in a 50% dilution between wells across the plate (this can be easily accomplished with an automatic 8 channel Matrix pipette set to withdraw, dispense and mix).
In row A of a 96 deep well plate pipette 180 ul of sterile BHI with 1% Tween 80 as a negative growth control. All other wells receive 180 ul of inoculum. From the master plate introduce 20 ul to the corresponding row in the test plate using an 8-channel pipette. Loaded plates are placed on a plate shaker in the 37° C. incubator and incubated overnight. The next day read the O.D. 600 on a plate reader. The MIC is the last well from the right that has no bacterial growth.

SMILES | microbial inhibition concentration (MIC) (S. epidermidis) [ppm] | microbial inhibition concentration (MIC) (C. mucofaciens) [ppm] | performance against the bacteria as raw materials (in words) [1]
Cc1cc(CC(C)CC(C)(C)C)n(O)c(=O)c1.NCCO (stereo not drawn) [100 mg/ml piroctone olamine in H2O, piroctone olamine] | 10 | < 5 | perform particularly well
CCOC(=O)CC(O)(CC(=O)OCC)C(=O)OCC [100% Triethyl citrate, Triethyl citrate] |  |  | performing well
O=C([O-])[O-].[Ca+2] [Ca Carbonate 50 mg/ml H2O ins, calcium carbonate] |  |  | performing moderately well
CC(C)=CCCC(C)=CC=O [Citral 96% ETOH, Citral] |  |  | performing well
COC(=O)CCC(=O)OC [Dimethyl Succinate 98% ETOH, Dimethyl Succinate] |  |  | performing well
C=CCc1ccc(O)c(OC)c1 [Eugenol 99% ETOH, Eugenol] |  |  | performing well
N=C(N)c1ccc(OCCCCCCOc2ccc(C(=N)N)cc2)cc1 [Hexamidine 36 mg/ml H2O, Hexamidine] | 7 | <2 | perform particularly well
C=CCCCCCCCCC(=O)N[C@@H](Cc1ccccc1)C(=O)O [Sepiwhite 40 mg/ml H2O ins] |  |  | performing well
